Holding throughout (assay): biochemical
For test [1], the target named is T1, panel of 374 wild-type kinases (Homo sapiens, UniProt Q16288).
T1 construct: purchased Reaction Biology Corporation
Conditions: for remaining activity at 5 µM: read-out: % Enzyme Activity (relative to DMSO controls), kinase TRKC.

Test [2] deals with T2, panel of 374 wild-type kinases (Homo sapiens, UniProt Q15208).
T2 construct: purchased Reaction Biology Corporation
The following applies: read-out: % Enzyme Activity (relative to DMSO controls), kinase STK38/NDR1.

Test [3] has as its target T3, panel of 374 wild-type kinases (Homo sapiens, UniProt Q08345).
T3 construct: purchased Reaction Biology Corporation
Conditions: read-out: % Enzyme Activity (relative to DMSO controls), DDR1.

Test [4] concerns the target T4, panel of 374 wild-type kinases (Homo sapiens, UniProt P50613).
T4 construct: purchased Reaction Biology Corporation
The following applies: read-out: % Enzyme Activity (relative to DMSO controls), CDK7/cyclin H.

Test [5] has as its target T5, panel of 374 wild-type kinases (Homo sapiens, UniProt P04626).
T5 construct: purchased Reaction Biology Corporation
The following applies: read-out: % Enzyme Activity (relative to DMSO controls), ERBB2/HER2.

The target in test [6] is T6, panel of 374 wild-type kinases (Homo sapiens, UniProt Q32MK0).
T6 construct: purchased Reaction Biology Corporation
T6 sequence (Q32MK0 1-819): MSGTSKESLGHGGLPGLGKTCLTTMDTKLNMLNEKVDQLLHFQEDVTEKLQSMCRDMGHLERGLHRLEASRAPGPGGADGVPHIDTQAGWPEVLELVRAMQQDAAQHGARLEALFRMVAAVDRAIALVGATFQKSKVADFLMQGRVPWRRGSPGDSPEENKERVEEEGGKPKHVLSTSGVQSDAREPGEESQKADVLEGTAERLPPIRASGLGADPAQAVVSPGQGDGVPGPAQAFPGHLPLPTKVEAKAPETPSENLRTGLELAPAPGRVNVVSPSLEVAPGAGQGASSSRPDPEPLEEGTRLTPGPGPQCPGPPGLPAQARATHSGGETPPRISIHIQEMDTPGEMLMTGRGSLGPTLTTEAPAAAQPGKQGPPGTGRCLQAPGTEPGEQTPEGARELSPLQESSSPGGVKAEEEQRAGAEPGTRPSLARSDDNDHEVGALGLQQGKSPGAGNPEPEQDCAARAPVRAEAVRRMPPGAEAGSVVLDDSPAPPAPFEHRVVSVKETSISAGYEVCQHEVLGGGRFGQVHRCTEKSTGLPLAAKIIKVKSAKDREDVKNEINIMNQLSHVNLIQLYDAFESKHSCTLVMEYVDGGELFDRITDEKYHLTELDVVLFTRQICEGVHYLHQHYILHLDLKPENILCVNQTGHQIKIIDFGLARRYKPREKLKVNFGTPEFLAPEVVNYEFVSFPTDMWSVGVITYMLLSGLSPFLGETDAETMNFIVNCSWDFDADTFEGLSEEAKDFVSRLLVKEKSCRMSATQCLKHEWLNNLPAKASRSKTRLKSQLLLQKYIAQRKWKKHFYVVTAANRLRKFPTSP
Conditions: read-out: % Enzyme Activity (relative to DMSO controls), MYLK3.

For test [7], the target named is T7, panel of 374 wild-type kinases (Homo sapiens, UniProt P36507).
T7 construct: purchased Reaction Biology Corporation
T7 sequence (P36507 whole entry): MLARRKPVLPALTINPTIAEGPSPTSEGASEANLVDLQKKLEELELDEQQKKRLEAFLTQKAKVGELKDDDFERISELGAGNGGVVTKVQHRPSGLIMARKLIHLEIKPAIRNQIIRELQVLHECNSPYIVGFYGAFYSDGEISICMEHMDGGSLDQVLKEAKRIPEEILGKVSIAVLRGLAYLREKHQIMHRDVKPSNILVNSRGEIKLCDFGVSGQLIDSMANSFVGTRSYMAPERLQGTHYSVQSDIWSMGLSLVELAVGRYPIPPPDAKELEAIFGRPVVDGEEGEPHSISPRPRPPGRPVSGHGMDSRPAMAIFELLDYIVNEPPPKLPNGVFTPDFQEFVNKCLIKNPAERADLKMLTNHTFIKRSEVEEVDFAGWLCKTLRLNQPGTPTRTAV
The following applies: read-out: % Enzyme Activity (relative to DMSO controls), MEK2.

Test [8] concerns the target T8, panel of 374 wild-type kinases (Homo sapiens, UniProt Q9NWZ3).
T8 construct: purchased Reaction Biology Corporation
T8 sequence (Q9NWZ3 1-460): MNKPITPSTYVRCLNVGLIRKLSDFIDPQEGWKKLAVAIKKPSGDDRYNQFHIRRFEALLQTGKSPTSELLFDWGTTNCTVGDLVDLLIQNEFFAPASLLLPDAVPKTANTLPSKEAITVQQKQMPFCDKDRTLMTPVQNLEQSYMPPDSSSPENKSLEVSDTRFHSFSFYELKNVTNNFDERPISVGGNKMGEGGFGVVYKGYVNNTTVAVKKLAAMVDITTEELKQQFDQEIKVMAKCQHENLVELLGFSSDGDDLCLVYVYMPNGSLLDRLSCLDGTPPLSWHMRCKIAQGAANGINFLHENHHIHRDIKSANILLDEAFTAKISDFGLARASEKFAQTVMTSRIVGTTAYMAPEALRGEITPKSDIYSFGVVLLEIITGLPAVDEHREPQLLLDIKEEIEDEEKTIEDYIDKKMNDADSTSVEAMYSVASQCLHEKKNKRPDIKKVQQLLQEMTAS
The following applies: read-out: % Enzyme Activity (relative to DMSO controls), IRAK4.

For test [9], the target named is T9, panel of 374 wild-type kinases (Homo sapiens, UniProt Q00536).
T9 construct: purchased Reaction Biology Corporation
T9 sequence (Q00536 whole entry): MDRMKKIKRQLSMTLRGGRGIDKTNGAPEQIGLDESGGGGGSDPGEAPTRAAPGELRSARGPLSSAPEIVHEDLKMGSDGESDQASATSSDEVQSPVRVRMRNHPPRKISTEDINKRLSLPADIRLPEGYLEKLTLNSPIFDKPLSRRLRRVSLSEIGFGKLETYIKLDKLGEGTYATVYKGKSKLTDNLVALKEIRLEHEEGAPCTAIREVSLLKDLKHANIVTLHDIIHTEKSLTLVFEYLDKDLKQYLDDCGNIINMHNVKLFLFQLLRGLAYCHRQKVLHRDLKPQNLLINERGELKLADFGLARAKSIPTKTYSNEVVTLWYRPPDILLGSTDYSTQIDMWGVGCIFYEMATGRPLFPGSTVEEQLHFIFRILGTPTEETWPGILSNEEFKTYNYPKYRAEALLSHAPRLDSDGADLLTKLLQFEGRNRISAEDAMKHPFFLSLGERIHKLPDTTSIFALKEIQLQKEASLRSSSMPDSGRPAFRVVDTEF
Conditions: read-out: % Enzyme Activity (relative to DMSO controls), CDK16/cyclin Y (PCTAIRE).

Test [10] addresses T10, panel of 374 wild-type kinases (Homo sapiens, UniProt Q00537).
T10 construct: purchased Reaction Biology Corporation
Conditions: read-out: % Enzyme Activity (relative to DMSO controls), CDK17/cyclin Y (PCTK2).

T10 sequence (Q00537 whole entry): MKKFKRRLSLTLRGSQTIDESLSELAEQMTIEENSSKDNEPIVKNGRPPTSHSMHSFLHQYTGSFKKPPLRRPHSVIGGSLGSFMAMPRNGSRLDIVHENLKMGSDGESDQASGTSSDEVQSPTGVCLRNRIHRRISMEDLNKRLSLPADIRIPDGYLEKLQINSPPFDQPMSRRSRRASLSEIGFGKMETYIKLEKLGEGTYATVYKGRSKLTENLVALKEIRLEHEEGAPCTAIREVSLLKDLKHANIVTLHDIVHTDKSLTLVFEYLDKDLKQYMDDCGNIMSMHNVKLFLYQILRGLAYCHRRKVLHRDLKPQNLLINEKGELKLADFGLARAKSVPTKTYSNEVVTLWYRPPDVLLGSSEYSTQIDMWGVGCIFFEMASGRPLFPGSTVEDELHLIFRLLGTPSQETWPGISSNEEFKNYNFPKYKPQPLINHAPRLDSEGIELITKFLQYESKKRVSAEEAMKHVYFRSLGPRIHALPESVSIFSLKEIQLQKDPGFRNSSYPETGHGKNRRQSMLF
T5 sequence (P04626 23-1255): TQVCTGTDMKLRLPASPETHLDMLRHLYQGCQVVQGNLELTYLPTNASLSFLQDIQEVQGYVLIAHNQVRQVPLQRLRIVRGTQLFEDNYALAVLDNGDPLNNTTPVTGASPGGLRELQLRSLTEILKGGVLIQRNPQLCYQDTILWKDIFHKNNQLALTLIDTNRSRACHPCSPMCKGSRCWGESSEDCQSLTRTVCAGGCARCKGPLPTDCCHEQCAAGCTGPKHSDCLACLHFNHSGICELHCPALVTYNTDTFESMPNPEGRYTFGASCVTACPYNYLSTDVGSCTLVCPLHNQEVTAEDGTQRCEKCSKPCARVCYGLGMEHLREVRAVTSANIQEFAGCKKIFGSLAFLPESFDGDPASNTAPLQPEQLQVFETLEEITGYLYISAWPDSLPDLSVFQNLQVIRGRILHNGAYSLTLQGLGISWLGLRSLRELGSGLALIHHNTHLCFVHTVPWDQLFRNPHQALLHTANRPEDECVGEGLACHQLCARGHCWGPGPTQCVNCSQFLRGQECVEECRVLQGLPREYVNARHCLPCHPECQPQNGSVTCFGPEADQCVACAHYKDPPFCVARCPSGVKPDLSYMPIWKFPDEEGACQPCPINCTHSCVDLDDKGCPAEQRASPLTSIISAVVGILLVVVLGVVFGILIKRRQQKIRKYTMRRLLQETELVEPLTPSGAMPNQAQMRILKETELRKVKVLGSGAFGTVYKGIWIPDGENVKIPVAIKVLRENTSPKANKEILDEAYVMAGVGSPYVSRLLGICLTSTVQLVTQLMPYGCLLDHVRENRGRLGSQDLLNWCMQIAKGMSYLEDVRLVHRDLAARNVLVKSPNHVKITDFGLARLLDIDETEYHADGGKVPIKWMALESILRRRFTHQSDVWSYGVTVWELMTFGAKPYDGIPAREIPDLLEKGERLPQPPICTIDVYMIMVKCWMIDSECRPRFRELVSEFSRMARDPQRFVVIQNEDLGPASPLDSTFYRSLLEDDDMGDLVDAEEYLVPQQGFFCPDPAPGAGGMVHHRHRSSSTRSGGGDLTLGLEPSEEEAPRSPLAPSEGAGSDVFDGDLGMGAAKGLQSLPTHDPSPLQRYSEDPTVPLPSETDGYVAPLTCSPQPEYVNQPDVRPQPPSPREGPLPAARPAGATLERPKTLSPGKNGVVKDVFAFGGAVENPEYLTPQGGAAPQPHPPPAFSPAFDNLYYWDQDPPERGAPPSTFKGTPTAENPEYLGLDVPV
T3 sequence (Q08345 19-913): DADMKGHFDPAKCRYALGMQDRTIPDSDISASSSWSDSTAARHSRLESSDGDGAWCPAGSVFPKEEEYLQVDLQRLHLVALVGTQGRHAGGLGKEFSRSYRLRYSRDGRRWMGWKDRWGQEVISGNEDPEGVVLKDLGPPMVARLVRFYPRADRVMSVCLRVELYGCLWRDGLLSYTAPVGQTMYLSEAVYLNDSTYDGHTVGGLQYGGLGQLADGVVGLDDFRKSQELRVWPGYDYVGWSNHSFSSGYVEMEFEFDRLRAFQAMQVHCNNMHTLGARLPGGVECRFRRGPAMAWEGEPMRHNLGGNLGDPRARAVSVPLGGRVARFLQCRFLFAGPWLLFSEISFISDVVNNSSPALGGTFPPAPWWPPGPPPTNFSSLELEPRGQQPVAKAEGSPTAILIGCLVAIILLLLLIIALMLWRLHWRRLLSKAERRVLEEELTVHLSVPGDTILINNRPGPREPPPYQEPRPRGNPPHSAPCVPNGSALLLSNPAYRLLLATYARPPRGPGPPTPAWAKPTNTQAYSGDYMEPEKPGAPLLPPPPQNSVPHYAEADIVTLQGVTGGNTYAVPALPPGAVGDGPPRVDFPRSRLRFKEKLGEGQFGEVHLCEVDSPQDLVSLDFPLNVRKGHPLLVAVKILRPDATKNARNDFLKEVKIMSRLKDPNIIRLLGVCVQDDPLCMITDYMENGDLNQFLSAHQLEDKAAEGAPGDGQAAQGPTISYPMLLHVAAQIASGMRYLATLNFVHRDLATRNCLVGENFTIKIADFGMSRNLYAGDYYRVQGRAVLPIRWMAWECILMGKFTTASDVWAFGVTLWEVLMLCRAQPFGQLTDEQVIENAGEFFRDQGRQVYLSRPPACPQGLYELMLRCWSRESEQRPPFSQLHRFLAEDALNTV
T2 sequence (Q15208 whole entry): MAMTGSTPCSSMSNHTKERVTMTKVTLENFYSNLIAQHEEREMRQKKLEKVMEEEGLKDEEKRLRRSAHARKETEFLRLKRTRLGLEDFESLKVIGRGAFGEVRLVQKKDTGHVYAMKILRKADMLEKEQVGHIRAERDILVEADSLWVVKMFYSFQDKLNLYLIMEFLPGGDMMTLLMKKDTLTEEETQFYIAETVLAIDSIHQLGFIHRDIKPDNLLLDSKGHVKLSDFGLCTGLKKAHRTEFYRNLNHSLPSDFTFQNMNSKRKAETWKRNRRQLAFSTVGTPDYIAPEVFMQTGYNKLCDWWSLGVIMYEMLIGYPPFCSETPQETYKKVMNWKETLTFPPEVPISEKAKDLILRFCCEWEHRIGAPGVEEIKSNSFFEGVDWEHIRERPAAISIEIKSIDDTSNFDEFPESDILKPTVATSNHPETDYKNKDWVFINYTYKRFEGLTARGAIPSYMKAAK
T4 sequence (P50613 whole entry): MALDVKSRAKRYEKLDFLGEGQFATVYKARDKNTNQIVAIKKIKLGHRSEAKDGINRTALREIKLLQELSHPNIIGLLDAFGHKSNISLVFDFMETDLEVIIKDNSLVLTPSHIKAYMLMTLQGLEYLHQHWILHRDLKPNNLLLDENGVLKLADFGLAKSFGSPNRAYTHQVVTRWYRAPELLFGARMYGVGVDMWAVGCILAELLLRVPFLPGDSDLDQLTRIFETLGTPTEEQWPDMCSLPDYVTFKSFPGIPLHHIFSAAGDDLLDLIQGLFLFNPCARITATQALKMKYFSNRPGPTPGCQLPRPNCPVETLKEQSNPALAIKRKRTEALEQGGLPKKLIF

Take `O=C(Nc1cnn(-c2csc(C(=O)NC3COC3)c2)c1)Nc1ccccc1Cl` [Compound 17, 4-(4-(3-(2-chlorophenyl)ureido)-1H-pyrazol-1-yl)-N-(oxetan-3-yl)thiophene-2-carboxamide]: the remaining activity at 5 µM in test [1] worked out at 64.3%; in [2], 99.2%; in test [3], 98.4%; in [4], 99.7%; in test [5], 103%; in test [6], 95.1%. For the same compound, the remaining activity at 5 µM came out at 92.2% in [7], 92.1% in test [8], 94.8% in test [9] and 106% in [10].

As for `O=C(Nc1cnn(-c2csc(C(=O)NC3COC3)c2)c1)Nc1c(F)cccc1Cl` [Compound 25, 4-(4-(3-(2-chloro-6-fluorophenyl)ureido)-1H-pyrazol-1-yl)-N-(oxetan-3-yl)thiophene-2-carboxamide], the remaining activity at 5 µM came out at 38.6% in test [1]; 95.5% in test [2]; 88.9% in test [3]; 95.8% in [4]; 97% in test [5]; 102% in [6]. In addition, the remaining activity at 5 µM in [7] stood at 90.6%; in [8], 97.8%; in [9], 101%; in [10] it was 96%.

For `Cc1sc(C(=O)NC2COC2)cc1-n1cc(NC(=O)Nc2c(F)cccc2Cl)cn1` [Compound 27, 4-(4-(3-(2-chloro-6-fluorophenyl)ureido)-1H-pyrazol-1-yl)-5-methyl-N-(oxetan-3-yl)thiophene-2-carboxamide], the remaining activity at 10 µM in test [1] (kinase TRKC, 10 uM, read-out: % Enzyme Activity (relative to DMSO controls)) is 86%; in [2] (10 uM), 91.5%; in [3] (10 uM), 83.7%; in test [4] (10 uM) it was 103%; in test [5] (10 uM), 64.1%; in test [6] (10 uM) it was 112%. Further, the remaining activity at 10 µM in test [7] (10 uM) worked out at 99.5%; in test [8] (10 uM) it was 103%; in [9] (10 uM) it was 102%; in test [10] (10 uM) it was 102%.

The record behind these values is US20240246942A1, “KINASE INHIBITORS FOR THE TREATMENT OF NEURODEGENERATIVE DISEASES” (priority 2020, published 2024).
